Assay: Long-term stability in spiked pooled human plasma

Structure (SMILES) | Long-term stability, 1 month, -20°C Accuracy [%] (validation standard 2xLLOV) | Long-term stability, 1 month, -80°C Accuracy [%] (validation standard 2xLLOV) | Long-term stability, 2 month, -20°C Accuracy [%] (validation standard 2xLLOV) | Long-term stability, 2 month, -80°C Accuracy [%] (validation standard 2xLLOV) | Long-term stability, 3 month, -20°C Accuracy [%] (validation standard 2xLLOV) | Long-term stability, 3 month, -80°C Accuracy [%] (validation standard 2xLLOV) | Long-term stability, 6 weeks, 4°C, without daylight Accuracy [%] (validation standard 2xLLOV) | Long-term stability, 1 month, -20°C Accuracy [%] (validation standard LLOV) | Long-term stability, 1 month, -80°C Accuracy [%] (validation standard LLOV) | Long-term stability, 1 month, -80°C Accuracy [%] (validation standard MOV) | Long-term stability, 2 month, -20°C Accuracy [%] (validation standard MOV) | Long-term stability, 2 month, -80°C Accuracy [%] (validation standard MOV) | Long-term stability, 3 month, -80°C Accuracy [%] (validation standard MOV) | Long-term stability, 6 weeks, 4°C, without daylight Accuracy [%] (validation standard MOV) | Long-term stability, 1 month, -20°C Accuracy [%] (validation standard ULOV) | Long-term stability, 1 month, -80°C Accuracy [%] (validation standard ULOV) | Long-term stability, 2 month, -20°C Accuracy [%] (validation standard ULOV) | Long-term stability, 2 month, -80°C Accuracy [%] (validation standard ULOV) | Long-term stability, 3 month, -80°C Accuracy [%] (validation standard ULOV) | Long-term stability, 6 weeks, 4°C, without daylight Accuracy [%] (validation standard ULOV) | further results
Cc1[nH]c2ccccc2c1CCNCc1ccc(/C=C/C(=O)NO)cc1 [Panobinostat] | 52.2% | 59.0% | 66.3% | 107.6% | 57.5% | 67.6% | 11.4% | 38.2% | 33.7% | 84.1% | 75.7% | 87.5% | 82.1% | 67.6% | 89.6% | 89.9% | 98.1% | 99.4% | 100.2% | 79.4% | Long-term stability, 2 month, -20°C Accuracy [%] (validation standard LLOV): 21.2%; Long-term stability, 2 month, -80°C Accuracy [%] (validation standard LLOV): 29.9%; Long-term stability, 3 month, -20°C Accuracy [%] (validation standard LLOV): 8.2%; Long-term stability, 3 month, -80°C Accuracy [%] (validation standard LLOV): 34.0%; Long-term stability, 1 month, -20°C Accuracy [%] (validation standard MOV): 82.0%; Long-term stability, 3 month, -20°C Accuracy [%] (validation standard MOV): 66.1%; Long-term stability, 3 month, -20°C Accuracy [%] (validation standard ULOV): 87.5%
Cc1ccc(Nc2nccc(N(C)c3ccc4c(C)n(C)nc4c3)n2)cc1S(N)(=O)=O [Pazopanib] | 99.1% | 95.8% | 100.4% | 103.8% | 106.9% | 104.8% | 96.5% | 102.3% | 97.4% | 95.8% | 98.8% | 98.1% | 103.3% | 109.7% | 97.3% | 93.0% | 98.8% | 98.3% | 100.0% | 98.9% | Long-term stability, 2 month, -20°C Accuracy [%] (validation standard LLOV): 106.7%; Long-term stability, 2 month, -80°C Accuracy [%] (validation standard LLOV): 108.3%; Long-term stability, 3 month, -20°C Accuracy [%] (validation standard LLOV): 103.9%; Long-term stability, 3 month, -80°C Accuracy [%] (validation standard LLOV): 103.6%; Long-term stability, 6 weeks, 4°C, without daylight Accuracy [%] (validation standard LLOV): 99.0%; Long-term stability, 1 month, -20°C Accuracy [%] (validation standard MOV): 96.3%; Long-term stability, 3 month, -20°C Accuracy [%] (validation standard MOV): 103.3%; Long-term stability, 3 month, -20°C Accuracy [%] (validation standard ULOV): 98.1%
Cc1ccc(C(=O)Nc2ccc(CN3CCN(C)CC3)c(C(F)(F)F)c2)cc1C#Cc1cnc2cccnn12 [Ponatinib] | 99.2% | 94.7% | 95.8% | 97.8% | 93.4% | 98.9% | 91.7% |  |  | 93.7% | 99.2% | 101.1% | 95.3% | 97.9% | 95.0% | 90.8% | 97.0% | 100.1% | 93.5% | 89.4% | Long-term stability, 1 month, -20°C Accuracy [%] (validation standard MOV): 92.3%; Long-term stability, 3 month, -20°C Accuracy [%] (validation standard MOV): 95.0%; Long-term stability, 3 month, -20°C Accuracy [%] (validation standard ULOV): 93.8%
CN(C)C(=O)c1cc2cnc(Nc3ccc(N4CCNCC4)cn3)nc2n1C1CCCC1 [Ribociclib] |  | 98.5% | 109.0% | 112.4% |  | 106.4% | 96.4% | 88.0% | 83.5% | 101.3% | 108.6% | 108.1% | 104.3% | 107.4% | 91.9% | 90.7% | 98.7% | 98.8% | 92.7% | 96.3% | Long-term stability, 2 month, -20°C Accuracy [%] (validation standard LLOV): 92.7%; Long-term stability, 2 month, -80°C Accuracy [%] (validation standard LLOV): 94.7%; Long-term stability, 3 month, -80°C Accuracy [%] (validation standard LLOV): 90.7%; Long-term stability, 6 weeks, 4°C, without daylight Accuracy [%] (validation standard LLOV): 76.6%
CNCc1ccc(-c2[nH]c3cc(F)cc4c3c2CCNC4=O)cc1 [Rucaparib] | 95.4% | 89.7% | 100.7% | 99.7% | 95.9% | 94.7% | 93.1% | 104.7% | 102.1% | 95.5% | 104.6% | 102.1% | 97.2% | 103.5% | 99.8% | 94.8% | 104.3% | 102.7% | 98.3% | 100.2% | Long-term stability, 2 month, -20°C Accuracy [%] (validation standard LLOV): 115.1%; Long-term stability, 2 month, -80°C Accuracy [%] (validation standard LLOV): 112.2%; Long-term stability, 3 month, -20°C Accuracy [%] (validation standard LLOV): 109.6%; Long-term stability, 3 month, -80°C Accuracy [%] (validation standard LLOV): 108.0%; Long-term stability, 6 weeks, 4°C, without daylight Accuracy [%] (validation standard LLOV): 104.4%; Long-term stability, 1 month, -20°C Accuracy [%] (validation standard MOV): 98.5%; Long-term stability, 3 month, -20°C Accuracy [%] (validation standard MOV): 101.6%; Long-term stability, 3 month, -20°C Accuracy [%] (validation standard ULOV): 100.6%
N#CC[C@H](C1CCCC1)n1cc(-c2ncnc3[nH]ccc23)cn1 [Ruxolitinib] | 101.5% | 93.0% | 97.7% | 100.0% | 97.5% | 99.4% | 93.8% | 95.6% | 94.6% | 94.2% | 97.7% | 96.8% | 94.6% | 97.6% | 95.3% | 91.6% | 95.3% | 95.8% | 94.5% | 96.6% | Long-term stability, 2 month, -20°C Accuracy [%] (validation standard LLOV): 98.6%; Long-term stability, 2 month, -80°C Accuracy [%] (validation standard LLOV): 99.8%; Long-term stability, 3 month, -20°C Accuracy [%] (validation standard LLOV): 101.8%; Long-term stability, 3 month, -80°C Accuracy [%] (validation standard LLOV): 96.5%; Long-term stability, 6 weeks, 4°C, without daylight Accuracy [%] (validation standard LLOV): 97.9%; Long-term stability, 1 month, -20°C Accuracy [%] (validation standard MOV): 95.8%; Long-term stability, 3 month, -20°C Accuracy [%] (validation standard MOV): 97.0%; Long-term stability, 3 month, -20°C Accuracy [%] (validation standard ULOV): 95.4%

Reference: publication PMC8699473, “An Easily Expandable Multi-Drug LC-MS Assay for the Simultaneous Quantification of 57 Oral Antitumor Drugs in Human Plasma” (Cancers, 2021)
